Measurements published in patent US20250144127A1, “LONG-CHAIN COMPOUND AND USE THEREOF” (Burgeon Therapeutics Co., Ltd., priority 2021, published 2025).

Tested on: golden hamster
Experiment: High-fat and high-cholesterol diet-induced hyperlipidemia model of golden hamster
Type: in vivo
Details: 1 time/day, 7 days, vs control group
Excerpt: Dosing regimen: The hyperlipidemia model of golden hamster is recognized as one of the ideal animal models for studying hyperlipidemia drug therapy (pharmacodynamic evaluation). In order to preliminarily investigate the existence of potential regulatory effects of the candidate compounds on hepatic lipid metabolism homeostasis, the high-fat and high-cholesterol diet-induced hyperlipidemia model of golden hamster was utilized for preliminary pharmacodynamic evaluation. The specific protocol was as follows. 56 golden hamsters, males, were modeled on high-fat and high-cholesterol diet (Research diet, item number C11953) for two weeks, and 8 golden hamsters were reserved as blank control group. Subsequently, group administration (7 groups, n=8) was performed, i.e., model control group, positive control ETC-1002 30 mg/kg group, compound A3 10 mg/kg and 30 mg/kg group, compound A4 10 mg/kg and 30 mg/kg group, and blank control group. The compounds in each group were configured with saline (0.9% NaCl) and administered at a frequency of 1 time/day for a 7-day dosing cycle.
Indicator test: The body weight and food intake of golden hamsters were closely monitored during the administration period. After 7 days of administration, blood was collected from the orbital region of each group (starved overnight for about 16 hours), centrifuged to obtain serum, and stored in cryopreservation, and then total cholesterol and LDL cholesterol were detected in the serum. The relative amount of the relevant indexes was calculated as follows: Relative amount (100%)=the amount in the administered group/the amount in the model control group*100%.

CC(C)(CCCC/C=C/CCCCCC(C)(C)C(=O)O)C(=O)O [Compound A3]
significantly reduce: serum LDL cholesterol (10 mg/kg) | serum total cholesterol (10 mg/kg) | serum LDL cholesterol (30 mg/kg) | serum total cholesterol (30 mg/kg)
